Experimental data: patent US20230118467A1, “COSMETIC OR PHARMACEUTICAL USE OF AVENANTHRAMIDE L” (priority 2020, published 2023)
Where two headings read alike, the source gives them in different places.

How the values were obtained:
[1] = tested on: Primary human dermal fibroblasts; experiment: Cellular antioxidant activity (DCF-DA assay); format: cell-based; details: 24 h incubation, prooxidant challenge 1 mM 1 h
Method: The DCF-DA assay is a fluorometric microplate assay for the detection of oxidative stress by detecting oxidation of 2′,7′-dichlorofluorescein-diacetate (DCF-DA) into the highly fluorescent compound 2′,7′-dichlorofluorescein (DCF) due to the presence of reactive oxygen species (ROS). The DCF-DA assay allows the cellular antioxidant activity of a substance to be determined.
Primary human dermal fibroblasts were seeded in a 96-well microtiter plate at a concentration of 0.5×10^4 cells/well. Cultivation took place at 37° C. and 5% CO2 in DMEM, enriched with 10% foetal calf serum. Confluence was supposed to be around 70% at the time, the incubation with the test substances began. The test substances were applied to the cells at a concentration of 500 μM. After 24 h of incubation, 100 μL H2DCF-DA-solution (10 μM) incl. DAPI (1:1000) was added to all samples (excluded the background-control) and incubated for one hour to deesterify the H2DCF-DA by cellular esterases. The resulting H2DCF was thereby trapped inside the cell. After the incubation, the cells were washed and the prooxidant challenge was set (1 mM, 1 h). The resulting fluorescence was read at λex 504 nm; λem 524 nm. An increased level of ROS (reactive oxygen species) led to an increased amount of fluorescence.
The inhibition of the oxidation in the presence of test substances was calculated according to the following equation: […]
The abbreviations have the following meanings: • RFU test substance: Relative fluorescence units of the wells with test substance and with cells • RFU control: Relative fluorescence units of the wells without test substance, but with cells • RFU without cells: Relative fluorescence units of the wells without test substance and without cells (blank)

[2] = Temperature stability at 40° C. of avenanthramide mixture in solution; format: physicochemical
Source text: with p=sample 1 and v=sample 2

CD44 = experiment: Gene expression in neonatal human epidermal keratinocytes (real-time PCR): CD44; format: cell-based; details: 100 μM, 24 hours, nHEK; RQ ≥2.0 relevant; listed as avenanthramide L
Method: (§1) Neonatal human epidermal keratinocytes (nHEK) were cultivated in an EpiLife® medium (Gibco) including an HKGS kit (Gibco) with 5% C02 at 37° C. in accordance with the supplier's instructions.
(§2) The cells were treated for 24 hours, with the test compounds dissolved in DMSO and DMSO alone as the vehicle control. Genomic target expression levels in treated cells were measured using a quantitative Real-Time PCR comparison to vehicle control treatment.
(§3) RNA was isolated using Qiagen's RNeasy® Mini Kit. The total RNA concentrations were measured using Eppendorf's pCuvetteG 1.0 and BioPhotometer, by measuring the absorption at 260 nm. Purity control values such as E260/280 and E260/230 were calculated simultaneously. Reverse transcription was performed using the high-capacity RNA-to-cDNA kit of Applied Biosystems, in accordance with the supplier's instructions. Samples were treated in Biometra's PCR Thermocycler.
(§4) For fast real-time PCR, the cDNA was diluted with RNase-free water, and the TaqMan™ Fast Universal PCR Master Mix of Applied Biosystems was used.
(§5) Quantitative real-time PCR was performed using the StepOnePlus fast real-time PCR instrument by Applied Biosystems. Analysis was conducted using the StepOne software and 2^−ΔΔct method (normalised to endogenous control […] expression).
(§6) For upregulations, RQ values ≥2.0 are considered to be relevant. […]

BLVRB = experiment: Gene expression in neonatal human epidermal keratinocytes (real-time PCR): BLVRB; format: cell-based; details: 100 μM, 24 hours, nHEK; RQ ≥2.0 relevant; listed as avenanthramide L
Method: as §1, §2, §3, §4, §5, §6

HSP90AA1 = experiment: Gene expression in neonatal human epidermal keratinocytes (real-time PCR): HSP90AA1; format: cell-based; details: 100 μM, 24 hours, nHEK, vs DMSO vehicle, RQ ≥2.0 relevant
Method: as §1, §2, §3, §4, §5
For upregulations, RQ values ≥2.0 are considered to be relevant.

HPRT1 (housekeeping) = experiment: Gene expression in neonatal human epidermal keratinocytes (real-time PCR): HPRT1; format: cell-based; details: 100 μM, 24 hours
Method: as §1, §2, §3, §4, §5, §6

[3] = 24 h
Method: Stability under exposure to oxygen and temperature was evaluated for dissolved pure avenanthramides in aqueous ethanolic solution, both alone and as an avenanthramide mixture.
Avenantharmide mixtures used were DragoCalm® (Symrise; INCI Name: Aqua, Glycerin, Avena Sativa Kernel Extract) or DragoCalm® SP (Symrise; INCI Name: Aqua, Glycerin, Pentylene Glycol, Avena Sativa Kernel Extract).
The liquids were either exposed to 5 bars of oxygen at 70° C. for 24 hours using the Oxipress device or stored for 2 and 4 weeks at 40° C. in a heating cabinet.
The content of Avns was determined by HPLC, and the colour was measured by colorimetry (Hach Lange Lico 690 instrument) before and after treatment.
Color can be determined using the CIELAB color model which is based on an opponent color system. CIELAB indicates the color by values on three axes: L*, a*, and b* with dimension L for lightness and a* and b* for the color-opponent dimensions red/green and yellow/blue, based on nonlinearly compressed coordinates. The L* axis extends from black (0) to white (100), the a* axis from green (−a) to red (+a) and the b* axis from blue (−b) to yellow (+b).
The difference of 2 colors ΔE can be calculated using the following equation:
ΔEp,v=√{square root over ((Lp*−Lv*)^2+(ap*−av*)^2+bp*−bv*)^2)}
A difference of ΔE of 0.5-1 can be visually observed by a trained evaluator by naked eye. A difference of 2-4 can be observed visually also by a non-trained evaluator.

[4] = Radical-scavenging activity (ABTS assay); format: biochemical; details: absorption at 734 nm
Source text: The ABTS assay measures the relative ability of antioxidants to scavenge the ABTS radical generated in aqueous phase, as compared with a Trolox (water-soluble vitamin E analogue) standard. The green-blue stable radical cationic chromophore 2,2′-azino-bis(3-ethylbenzothiazoline-6-sulphonate) (ABTS^•+) is generated by reaction with the ABTS salt using a strong oxidising agent (for example potassium permanganate or potassium persulphate) and has absorption maxima at 414, 645, 734 and 815 nm. The reduction of the blue-green ABTS radical by hydrogen-donating antioxidants is measured by the suppression of its characteristic long wave absorption spectrum.
With the aid of the ABTS assay, the antioxidative capacity of Avn L and Avn A were evaluated and compared.
2,2′-azino-bis-(3-ethylbenzothiazoline-6-sulphonic acid) (ABTS) was transformed into the blue-green radical cation ABTS^•+ using potassium persulphate. Through the addition of [6]-paradol and alpha-tocopherol, the radical cations were reduced and discoloration was observed, as determined photometrically by absorption at 734 nm. Inhibition of radical formation in the test substance is calculated by the following formula: […]
where • Atest substance is the absorption in the wells with the test substance including [6]-paradol and alpha-tocopherol • Acontrol is the absorption in the wells with no test substance.
Values for IC50 (the concentration at which radical formation is inhibited by 50%) were calculated from the inhibition of radical formation [%] in a series of dilutions of tested samples.

[5] = Avn in mixture DragoCalm (glycerin/water)

O=C(/C=C/C=C/c1ccc(O)cc1)Nc1ccc(O)cc1C(=O)O [Avn L, 5-hydroxy-2-[(2E,4E)-5-(4-hydroxyphenyl)penta-2,4-dienamido]benzoic acid]
Inhibition of oxidation ([1]; 500 μM): higher antioxidant activity than avenanthramide A
inhibition at 500 µM ([1]; Homo sapiens, Fibroblast, read-out: Inhibition of oxidation): 49 ± 7%
Content after 2 weeks at 40° C. [2, 5]: 11 ppm
Content after 4 weeks at 40° C. [2, 5]: 10 ppm
Content before treatment ([2]; Avn in mixture DragoCalm (glycerin/water), HPLC): 11 ppm
Degradation in % ([2]; Avn in mixture DragoCalm, after 4 weeks at 40° C.): 9%
RQ value, CD44 (CD44): upregulates
RQ value, BLVRB (BLVRB): upregulates
RQ value, HSP90AA1 (HSP90AA1): 0.9
RQ value, HSP90AA1 (HSP90AA1; listed as avenanthramide L): no effect
RQ value, HPRT1 (housekeeping) (HPRT1 (housekeeping); nHEK (Example 4 gene array)): 1.0
RQ value, HPRT1 (housekeeping) (HPRT1 (housekeeping); nHEK, vs DMSO vehicle (Example 3)): 1.0
Degradation in % [3]: 13%
Degradation in % ([3]; 0.01 wt %): 3%
Mean antioxidant activity (inhibition of radical formation) ([4]; 5 μM): 40 ± 4%
Mean antioxidant activity (inhibition of radical formation) ([4]; 5 μM, listed as Avenanthramide L): at least 40%
Mean antioxidant activity (inhibition of radical formation) ([4]; 10 μM): 74 ± 4%
Mean antioxidant activity (inhibition of radical formation) ([4]; 10 μM, listed as avenanthramide L): at least 70%
